In patent US20230104283A1, “JNK INHIBITOR, AND PHARMACEUTICAL COMPOSITION AND USE THEREOF” (WUHAN LL SCIENCE AND TECHNOLOGY DEVELOPMENT CO. , LTD, priority 2019, published 2023):

Tests used:
[1] = molecular target: T1, JNK1 kinase (Homo sapiens, UniProt P45983); experiment: JNK1 activity screening (time-resolved fluorometric HTRF kinase assay); format: biochemical; details: enzymatic assay, activity level
T1 construct: purchased Carna Biosciences 04-163
Protocol: JNK1 activity screening. JNK1 activity was detected using a 96-well (Cisbio, 66PL96025) time-resolved fluorometric assay. The JNK1 assay was conducted in the following assay buffer: 10 mM MgCl2 (Sigma, M1028), 1 mM MnCl2 (Sigma, M1787), 1 mM DTT (Sigma, D0632) and 1× Enzymatic buffer/kinase (Cisbio, 62EZBFDC). By using the assay buffer, 3 μL of 0.1 ng/μL JNK1 kinase (Carna Biosciences, 04-163) was added to a 96-well microplate, and then 4 μL of a compound diluted appropriately (with a DMSO content of 2.5%) was added. The resulting mixture was incubated at room temperature for 0.5 h. To start the reaction, the assay buffer was used to mix 0.003 μM ATP (Aladdin, A7699) and 30 μM substrate ATF2-GST fusion (Cisbio, 64CUS000AFPEB), and 3 μL of the mixed solution was added to the microplate. The resulting mixture was incubated at room temperature for 2.5 h. HTRF detection buffer ([…], 62SDBRDD) was used then to prepare a mixture of 5 μg/mL MAb Anti GST-XL665 (Cisbio, 61GSTXLA) and 0.045 μg/mL PAb Anti-phospho ATF2-K (Cisbio, 61P12KAZ), and 10 μL of the mixture was added to the plate to terminate the reaction. After incubation for about 12 h, the plate was read on a Perkin-Elmer Envision reader.

[2] = tested on: RAW264.7 phosphorylated c-Jun (Ser63); experiment: RAW264.7 phosphorylated c-Jun whole cell assay; format: cell-based; details: Mus musculus; cytological assay, activity level; lipopolysaccharide-activated RAW264.7 cells, phospho-c-Jun (Ser63) ELISA
Protocol: RAW264.7 (ATCC TIB-71) cells were purchased from BeNa Culture Collection and maintained in a high-glucose DMEM medium (Gibco) containing 10% fetal bovine serum (Gibco) and 1% penicillin-streptomycin (Gibco). All cells were cultured at 37° C. in 95% air and 5% CO2. All cells were seeded into 120 μL of cell culture medium in a 96-well plate at a density of 2×10^5 cells per well. The stock solution of compound (15 mM) was serially diluted in DMSO (Sigma) and further diluted in growth medium, and it was then added at 15 μL per well as a 10× concentrated solution, well mixed with the cells and incubated with the cells for 30 min. Concentration of the compound vehicle (DMSO) in each well was 0.2%. After incubation for 30 min, the cells were activated with […] lipopolysaccharide (Sigma). Lipopolysaccharide was added to the growth medium as a 10× concentrated solution at 15 μL per well. The cell plate was incubated for 1 h, and then all the medium was removed. The level of C-Jun protein with phosphorylation of serine at site 63 was measured using the whole cell lysate kit-phosphorylated C-Jun assay (PathScan® Phospho-c-Jun (Ser63) Sandwich ELISA Kit) (CST, 7145C) according to the manufacturer's instructions.

T1 sequence (P45983 whole entry): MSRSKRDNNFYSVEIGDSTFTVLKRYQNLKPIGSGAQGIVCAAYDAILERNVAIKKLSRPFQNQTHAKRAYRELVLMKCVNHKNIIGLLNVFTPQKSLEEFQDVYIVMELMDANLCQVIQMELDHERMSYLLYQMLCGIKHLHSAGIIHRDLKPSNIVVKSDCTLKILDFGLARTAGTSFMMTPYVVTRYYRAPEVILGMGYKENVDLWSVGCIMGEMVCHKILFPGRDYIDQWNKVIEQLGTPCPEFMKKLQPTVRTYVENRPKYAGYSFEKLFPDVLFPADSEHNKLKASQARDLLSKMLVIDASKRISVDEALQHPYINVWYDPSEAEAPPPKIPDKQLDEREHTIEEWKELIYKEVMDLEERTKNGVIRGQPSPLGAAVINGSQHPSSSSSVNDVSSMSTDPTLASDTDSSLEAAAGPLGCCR

Row | Structure (SMILES) | IC50 [1] [nM] | IC50 [2] [nM]
1 | C[C@@H]1CC[C@@H](Nc2nc(NC(C)(C)C)ncc2C(=O)N2CC2)C[C@H]1O [Compound T027, Aziridin-1-yl(2-(tert-butylamino)-4-(((1R, 3R,4R)-3-hydroxy-4-methylcyclohexyl)amino)pyrimidin-5-yl)methanone] | 500 to 1000 | > 1000
2 | C[C@@H]1CC[C@@H](Nc2nc(NC(C)(C)C)ncc2C(F)F)C[C@H]1O [Compound T028, (1R,2R,5R)-5-((2-(tert-butylamino)-5-(difluoromethyl)pyrimidin-4-yl)amino)-2-methylcyclohex-1-ol] | > 1000 | > 1000
3 | COc1cnc(NC(C)(C)C)nc1N[C@@H]1CC[C@@H](C)[C@H](O)C1 [Compound T029, (1R,2R,5R)-5-((2-(tert-butylamino)-5-methoxypyrimidin-4-yl)amino)-2-methylcyclohex-1-ol] | > 1000 | > 1000
4 | C[C@@H]1CC[C@@H](Nc2nc(NC(C)(C)C)ncc2CF)C[C@H]1O [Compound T030, (1R,2R,5R)-5-((2-(tert-butylamino)-5-(fluoromethyl)pyrimidin-4-yl)amino)-2-methylcyclohex-1-ol] | > 1000 | > 1000
5 | C[C@@H]1CC[C@@H](Nc2nc(NC(C)(C)C)ncc2S(N)(=O)=O)C[C@H]1O [Compound T031, 2-(tert-butylamino)-4-(((1R,3R,4R)-3-hydroxy-4-methylcyclohexyl)amino) pyrimidine-5-sulfamide] | > 1000 | > 1000
6 | C[C@@H]1CC[C@@H](Nc2nc(NC(C)(C)C)ncc2O)C[C@H]1O [Compound T032, 2-(tert-butylamino)-4-(((1R,3R,4R)-3-hydroxy-4-methylcyclohexyl)amino) pyrimidine-5-ol] | > 1000 | > 1000
7 | C[C@@H]1CC[C@@H](Nc2nc(NC(C)(C)C)ncc2Br)C[C@H]1O [Compound T033, (1R,2R,5R)-5-((5-bromo-2-(tert-butylamino)pyrimidin-4-yl)amino)-2-methylcyclohexan-1-ol] | < 100 | 500 to 1000
8 | C[C@@H]1CC[C@@H](Nc2nc(NC(C)(C)C)ncc2-n2ccnc2)C[C@H]1O [Compound T034, (1R,2R,5R)-5-((2-(ter-butylamino)-5-(1H-imidazol-1-yl)pyrimidin-4-yl)amino)-2-methylcyclohex-1-ol] | > 1000 | > 1000
9 | C[C@@H]1CC[C@@H](Nc2nc(NC(C)(C)C)ncc2-n2cncn2)C[C@H]1O [Compound T035, (1R,2R,5R)-5-((2-(tert-butylamino)-5-(1H-1,2,4-triazol-1-yl)pyrimidin-4-yl)amino)-2-methylcyclohexan-1-ol] | 100 to 500 | 500 to 1000
10 | C[C@@H]1CC[C@@H](Nc2nc(NC(C)(C)C)ncc2-n2ccnn2)C[C@H]1O [Compound T036, (1R,2R,5R)-5-((2-(tert-butylamino)-5-(1H-1,2,3-triazol-1-yl)pyrimidin-4-yl)amino)-2-methylcyclohexan-1-ol] | 100 to 500 | 500 to 1000
11 | CS(=O)(=O)CCn1ccc(Nc2ccnc(N[C@H]3CC[C@H](O)CC3)n2)n1 [Compound T037, (1R,4R)-4-((4-((1-(2-(methylsulfonyl)ethyl)-1H-pyrazol-3-yl)amino)pyrimidin-2-yl)amino)cyclohexan-1-ol] | > 1000 | > 1000
12 | CS(=O)(=O)CCn1nccc1Nc1ccnc(N[C@H]2CC[C@H](O)CC2)n1 [Compound T038, (1R,4R)-4-((4-((1-(2-(methylsulfonyl)ethyl)-1H-pyrazol-5-yl)amino)pyrimidin-2-yl)amino)cyclohexan-1-ol] | > 1000 | > 1000
13 | C[C@@H]1CC[C@@H](Nc2nc(O[C@H]3CC[C@H](O)CC3)ncc2C(N)=O)C[C@H]1O [Compound T039, 4-(((1R,3R,4R)-3-hydroxy-4-methylcyclohexyl)amino)-2-(((1R, 4R)-4-hydroxycyclohexyl)oxy) pyrimidine-5-carboxamide] | 100 to 500 | > 1000
14 | COc1ccc(Oc2ncc(C(N)=O)c(N[C@@H]3CC[C@@H](C)[C@H](O)C3)n2)cc1 [Compound T040, 4-(((1R,3R,4R)-3-hydroxy-4-methylcyclohexyl)amino)-2-(4-methoxyphenoxy)pyrimidine-5-carboxamide] | 100 to 500 | 500 to 1000
15 | C[C@@H]1CC[C@@H](Nc2nc(OC3CC3)ncc2C(N)=O)C[C@H]1O [Compound T042, 2-cyclopropoxy-4-(((1R,3R,4R)-3-hydroxy-4-methylcyclohexyl)amino) pyrimidine-5-carboxamide] | 500 to 1000 | > 1000
16 | C[C@@H]1CC[C@@H](Nc2nc(OC(C)(C)C)ncc2C(N)=O)C[C@H]1O [Compound T043, 2-(tert-butoxy)-4-(((1R,3R,4R)-3-hydroxy-4-methylcyclohexyl)amino) pyrimidine-5-carboxamide] | 500 to 1000 | > 1000
17 | C[C@@H]1CC[C@@H](Nc2cc(NC(C)(C)C)ncc2C#N)C[C@H]1O [Compound T044, 6-(tert-butylamino)-4-(((1R,3R,4R)-3-hydroxy-4-methylcyclohexyl)amino) nicotinonitrile] | > 1000 | > 1000
18 | C[C@@H]1CC[C@@H](Nc2cc(NC(C)(C)C)ncc2C(N)=O)C[C@H]1O [Compound T045, 6-(tert-butylamino)-4-(((1R,3R,4R)-3-hydroxy-4-methylcyclohexyl)amino) nicotinamide] | > 1000 | > 1000
19 | C[C@@H]1CC[C@@H](Nc2cc(NCCO)ncc2C(N)=O)C[C@H]1O [Compound T046, 4-(((1R,3R,4R)-3-hydroxy-4-methylcyclohexyl)amino)-6-((2-hydroxyethyl)amino)nicotinamide] | 500 to 1000 | > 1000
20 | CC(C)Nc1cc(N[C@@H]2CC[C@@H](C)[C@H](O)C2)c(C(N)=O)cn1 [Compound T047, 4-(((1R,3R,4R)-3-hydroxy-4-methylcyclohexyl)amino)-6-(isopropylamino)nicotinamide] | 500 to 1000 | > 1000
21 | C[C@@H]1CC[C@@H](Nc2cc(NC3CCC(O)C3)ncc2C(N)=O)C[C@H]1O (stereo partly drawn) [Compound T048, 4-(((1R,3R,4R)-3-hydroxy-4-methylcyclohexyl)amino)-6-((3-hydroxycyclopentyl)amino) nicotinamide] | 500 to 1000 | > 1000
22 | C[C@@H]1CC[C@@H](Nc2cc(NC3CCC3)ncc2C(N)=O)C[C@H]1O [Compound T049, 6-(cyclobutylamino)-4-(((1R,3R,4R)-3-hydroxy-4-methylcyclohexyl)amino) nicotinamide] | 500 to 1000 | > 1000
23 | C[C@@H]1CC[C@@H](Nc2cc(NC3CCC3O)ncc2C(N)=O)C[C@H]1O (stereo partly drawn) [Compound T050, 4-(((1R,3R,4R)-3-hydroxy-4-methylcyclohexyl)amino)-6-((2-hydroxycyclobutyl)amino)nicotinamide] | 500 to 1000 | > 1000
24 | C[C@@H]1CC[C@@H](Nc2cc(NC3CC(O)C3)ncc2C(N)=O)C[C@H]1O (stereo partly drawn) [Compound T051, 4-(((1R,3R,4R)-3-hydroxy-4-methylcyclohexyl)amino)-6-((3-hydroxycyclobutyl)amino)nicotinamide] | 500 to 1000 | > 1000
25 | C[C@@H]1CC[C@@H](Nc2cc(NC3CCC(O)CC3)ncc2C(N)=O)C[C@H]1O (stereo partly drawn) [Compound T052, 4-(((1R,3R,4R)-3-hydroxy-4-methylcyclohexyl)amino)-6-((4-hydroxycyclohexyl)amino) nicotinamide] | 500 to 1000 | > 1000
26 | C[C@@H]1CC[C@@H](Nc2cc(NC3CCCC(O)C3)ncc2C(N)=O)C[C@H]1O (stereo partly drawn) [Compound T053, 4-(((1R,3R,4R)-3-hydroxy-4-methylcyclohexyl)amino)-6-((3-hydroxycyclohexyl)amino) nicotinamide] | > 1000 | > 1000
27 | C[C@@H]1CC[C@@H](Nc2cc(NC3CCCCC3)ncc2C(N)=O)C[C@H]1O [Compound T054, 6-(cyclohexylamino)-4-(((1R,3R,4R)-3-hydroxy-4-methylcyclohexyl)amino) nicotinamide] | > 1000 | > 1000
28 | C[C@@H]1CC[C@@H](Nc2cc(NC3CCCC3O)ncc2C(N)=O)C[C@H]1O (stereo partly drawn) [Compound T055, 4-(((1R,3R,4R)-3-hydroxy-4-methylcyclohexyl)amino)-6-((2-hydroxycyclopentyl)amino)nicotinamide] | > 1000 | > 1000
